Reference: patent US20220348558A1, “INHIBITORS OF ENCEPHALITIC ALPHAVIRUSES” (priority 2019, published 2022)

Key:
VEEV TC83 = test: microbe, parasite or virus in culture; format: cell-based; details: Venezuelan equine encephalitis virus, Vero 76, 48 h, read-out: VEEV TC83 EC50 nM
WEEV California = test: microbe, parasite or virus in culture; format: cell-based; details: Western equine encephalitis virus, Vero 76, 48 h, read-out: WEEV California EC50 nM

| SMILES | EC50 (VEEV TC83) | EC50 (WEEV California) |
| --- | --- | --- |
| N#Cc1ccc(-n2c([C@H]3CCCN3)nc3ccc([N+](=O)[O-])cc3c2=O)cc1 [Example 20, (R)-4-(6-nitro-4-oxo-2-(pyrrolidin-2-yl)quinazolin-3 (4H)-yl)benzonitrile] | 1 to 50 nM | 51 to 150 nM |
| O=c1c2cc([N+](=O)[O-])ccc2nc(C2CCCN2)n1-c1ccccc1Cl (stereo not shown) [Example 38, 3-(2-chlorophenyl)-6-nitro-2-(pyrrolidin-2-yl) quinazolin-4 (3H)-one] | > 1000 nM | > 1000 nM |
| COc1ccc(-n2c([C@H]3CCCN3)nc3c(-c4ccc(C(F)(F)F)nc4)cc([N+](=O)[O-])cc3c2=O)cc1F [Example 91, (R)-3-(3-fluoro-4-methoxyphenyl)-6-nitro-2-(pyrrolidin-2-yl)-8-(6-(trifluoromethyl)pyridin-3-yl) quinazolin-4 (3H)-one] | 1 to 50 nM | 1 to 50 nM |
| COc1ccc(-n2c([C@H]3CCCN3)nc3c(-c4ccc(C)nc4)cc([N+](=O)[O-])cc3c2=O)cc1F [Example 92, (R)-3-(3-fluoro-4-methoxyphenyl)-8-(6-methylpyridin-3-yl)-6-nitro-2-(pyrrolidin-2-yl) quinazolin-4 (3H)-one] | 1 to 50 nM | 1 to 50 nM |
| O=c1c2cc([N+](=O)[O-])ccc2nc([C@H]2CCCN2C2CCOCC2)n1-c1ccccc1 [Example 3, (R)-6-nitro-3-phenyl-2-(1-(tetrahydro-2H-pyran-4-yl)pyrrolidin-2-yl) quinazolin-4 (3H)-one] | 501 to 1000 nM | > 1000 nM |
| COc1ccc(-n2c([C@H]3CCCN3)nc3c(F)cc(C#N)cc3c2=O)cc1 [Example 78, (R)-8-fluoro-3-(4-methoxyphenyl)-4-oxo-2-(pyrrolidin-2-yl)-3,4-dihydroquinazoline-6-carbonitrile] | 51 to 150 nM | 51 to 150 nM |
| COc1ccc(-n2c([C@H]3C[C@H](F)CN3)nc3c(C)cc(C#N)cc3c2=O)cc1F [Example 54, 3-(3-fluoro-4-methoxyphenyl)-2-((2R,4S)-4-fluoropyrrolidin-2-yl)-8-methyl-4-oxo-3,4-dihydroquinazoline-6-carbonitrile] | 151 to 500 nM | 151 to 500 nM |
| COc1ccc(-n2c([C@H]3CCCN3)nc3c(Br)cc([N+](=O)[O-])cc3c2=O)cc1 [Example 80, (R)-8-bromo-3-(4-methoxyphenyl)-6-nitro-2-(pyrrolidin-2-yl) quinazolin-4 (3H)-one] | 1 to 50 nM | 1 to 50 nM |
| O=c1c2cc([N+](=O)[O-])ccc2nc(C2CCCN2)n1-c1cccc(Cl)c1 (stereo not shown) [Example 39, 3-(3-chlorophenyl)-6-nitro-2-(pyrrolidin-2-yl) quinazolin-4 (3H)-one] | 51 to 150 nM | > 1000 nM |
| COc1ccc(-n2c([C@@H]3CCCN3C)nc3c(C)cc([N+](=O)[O-])cc3c2=O)cc1F [Example 70, (S)-3-(3-fluoro-4-methoxyphenyl)-8-methyl-2-(1-methylpyrrolidin-2-yl)-6-nitroquinazolin-4 (3H)-one] | 1 to 50 nM | 1 to 50 nM |
| N#Cc1ccccc1-n1c([C@H]2CCCN2)nc2ccc([N+](=O)[O-])cc2c1=O [Example 22, (R)-2-(6-nitro-4-oxo-2-(pyrrolidin-2-yl)quinazolin-3 (4H)-yl)benzonitrile] | > 1000 nM | > 1000 nM |
| COc1ccc(-n2c([C@H]3CCCCN3)nc3ccc([N+](=O)[O-])cc3c2=O)cc1 [Example 33, (R)-3-(4-methoxyphenyl)-6-nitro-2-(piperidin-2-yl)quinazolin-4 (3H)-one] | 151 to 500 nM | 151 to 500 nM |
| CN1CCC(N2CCC[C@H]2c2nc3ccc([N+](=O)[O-])cc3c(=O)n2-c2ccccc2)CC1 [Example 7, (S)-2-(1-(1-methylpiperidin-4-yl)pyrrolidin-2-yl)-6-nitro-3-phenylquinazolin-4 (3H)-one] | > 1000 nM | > 1000 nM |
| CN[C@@H](C)c1nc2ccc([N+](=O)[O-])cc2c(=O)n1-c1ccc(OC)cc1 [Example 206, (S)-3-(4-methoxyphenyl)-2-(1-(methylamino)ethyl)-6-nitroquinazolin-4 (3H)-one] | 51 to 150 nM | 151 to 500 nM |
| COc1ccc(-n2c([C@H]3CCCN3)nc3cc(C)c([N+](=O)[O-])cc3c2=O)cc1 [Example 43, (R)-3-(4-methoxyphenyl)-7-methyl-6-nitro-2-(pyrrolidin-2-yl) quinazolin-4 (3H)-one] | 1 to 50 nM | 1 to 50 nM |
| COc1cc(F)ccc1-n1c([C@H]2CCCN2)nc2ccc([N+](=O)[O-])cc2c1=O [Example 26, (R)-3-(2-methoxy-4-fluorophenyl)-6-nitro-2-(pyrrolidin-2-yl) quinazolin-4 (3H)-one] | > 1000 nM | > 1000 nM |

| SMILES | EC50 (VEEV TC83) | EC50 (WEEV California) |
| --- | --- | --- |
| COc1c(F)cc(-n2c(C3CCCN3)nc3c(-c4ccc(C#CCO)cc4)cc(C#N)cc3c2=O)cc1F (stereo not shown) [Example 169, 3-(3,5-difluoro-4-methoxyphenyl)-8-(4-(3-hydroxyprop-1-yn-1-yl)phenyl)-4-oxo-2-(pyrrolidin-2-yl)-3,4-dihydroquinazoline-6-carbonitrile] | 51 to 150 nM | 51 to 150 nM |
| COc1ccc(-n2c([C@@H]3CCCN3)nc3c(C)cc(C#N)cc3c2=O)cc1 [Example 51, (S)-3-(4-methoxyphenyl)-8-methyl-4-oxo-2-(pyrrolidin-2-yl)-3,4-dihydroquinazoline-6-carbonitrile] | 151 to 500 nM | 501 to 1000 nM |
| COc1ccc(-n2c([C@@H]3CCNC3)nc3ccc([N+](=O)[O-])cc3c2=O)cc1 [Example 19, (R)-3-(4-methoxyphenyl)-6-nitro-2-(pyrrolidin-3-yl)quinazolin-4 (3H)-one] | 1 to 50 nM | 151 to 500 nM |
| COc1c(F)cc(-n2c(C3CCCN3)nc3c(-c4cc(C)nc(C)c4)cc(C#N)cc3c2=O)cc1F (stereo not shown) [Example 159, 3-(3,5-Difluoro-4-methoxyphenyl)-8-(2,6-dimethylpyridin-4-yl)-4-oxo-2-(pyrrolidin-2-yl)-3,4-dihydroquinazoline-6-carbonitrile] | 51 to 150 nM | 51 to 150 nM |
| COc1cccc(-n2c(C3CCCN3)nc3ccc([N+](=O)[O-])cc3c2=O)c1 (stereo not shown) [Example 32, 3-(3-methoxyphenyl)-6-nitro-2-(pyrrolidin-2-yl)quinazolin-4 (3H)-one] | > 1000 nM | > 1000 nM |
| COc1ccc(-n2c([C@@H]3CCNC3)nc3c(C)cc([N+](=O)[O-])cc3c2=O)cc1F [Example 67, (R)-3-(3-fluoro-4-methoxyphenyl)-8-methyl-6-nitro-2-(pyrrolidin-3-yl) quinazolin-4 (3H)-one] | 151 to 500 nM | 151 to 500 nM |
| COc1ccc(-n2c([C@H]3CCCN3)nc3cc(F)c(C#N)cc3c2=O)cc1 [Example 34, (R)-7-fluoro-3-(4-methoxyphenyl)-4-oxo-2-(pyrrolidin-2-yl)-3,4-dihydroquinazoline-6-carbonitrile] | 51 to 150 nM | 51 to 150 nM |
| COc1ccc(-n2c([C@H]3CCCN3)nc3c(-c4cncnc4)cc([N+](=O)[O-])cc3c2=O)cc1 [Example 87, (R)-3-(4-methoxyphenyl)-6-nitro-8-(pyrimidin-5-yl)-2-(pyrrolidin-2-yl) quinazolin-4 (3H)-one] | 1 to 50 nM | 1 to 50 nM |
| COc1ccc(-n2c([C@H]3CCCN3)nc3c(C(F)(F)F)cc(C#N)cc3c2=O)cc1F [Example 76, (R)-3-(3-fluoro-4-methoxyphenyl)-4-oxo-2-(pyrrolidin-2-yl)-8-(trifluoromethyl)-3,4-dihydroquinazoline-6-carbonitrile] | 1 to 50 nM | 1 to 50 nM |
| COc1ccc(-n2c([C@H]3Cc4ccccc4N3)nc3c(-c4ccc(C)nc4)cc(C#N)cc3c2=O)cc1F [Example 128, (R)-3-(3-fluoro-4-methoxyphenyl)-2-(indolin-2-yl)-8-(6-methylpyridin-3-yl)-4-oxo-3,4-dihydroquinazoline-6-carbonitrile] | 1 to 50 nM | 151 to 500 nM |
| COc1ccc(-n2c([C@@H]3C[C@@H](O)CN3)nc3c(-c4ccc(C)nc4)cc(C#N)cc3c2=O)cc1F [Example 116, 3-(3-fluoro-4-methoxyphenyl)-2-((2S,4R)-4-hydroxypyrrolidin-2-yl)-8-(6-methylpyridin-3-yl)-4-oxo-3,4-dihydroquinazoline-6-carbonitrile] | > 1000 nM | > 1000 nM |
| COc1ccc(-n2c([C@@H]3CCCN3)nc3c(-c4cccnc4)cc(C#N)cc3c2=O)cc1F [Example 108, (S)-3-(3-fluoro-4-methoxyphenyl)-4-oxo-8-(pyridin-3-yl)-2-(pyrrolidin-2-yl)-3,4-dihydroquinazoline-6-carbonitrile] | 1 to 50 nM | 1 to 50 nM |
| COc1ccc(-n2c([C@@H]3C[C@@H](F)CN3)nc3c(C)cc([N+](=O)[O-])cc3c2=O)cc1 [Example 63, 2-((2S,4R)-4-fluoropyrrolidin-2-yl)-3-(4-methoxyphenyl)-8-methyl-6-nitroquinazolin-4 (3H)-one] | > 1000 nM | > 1000 nM |
| COCCOc1c(F)cc(-n2c(C3CCCN3)nc3c(-c4cc(C)nc(C)c4)cc(C#N)cc3c2=O)cc1F (stereo not shown) [Example 162, 3-(3,5-difluoro-4-(2-methoxyethoxy)phenyl)-8-(2,6-dimethylpyridin-4-yl)-4-oxo-2-(pyrrolidin-2-yl)-3,4-dihydroquinazoline-6-carbonitrile] | 51 to 150 nM | 51 to 150 nM |
| COc1ccc(-n2c(-c3ccccn3)nc3c(-c4ccc(C)nc4)cc(C#N)cc3c2=O)cc1F [Example 196, 3-(3-fluoro-4-methoxyphenyl)-8-(6-methylpyridin-3-yl)-4-oxo-2-(pyridin-2-yl)-3,4-dihydroquinazoline-6-carbonitrile] | > 1000 nM | > 1000 nM |
| COc1ccc(-n2c([C@H]3CCCN3)nc3c(-c4ccc(F)nc4)cc(C#N)cc3c2=O)cc1F [Example 99, (R)-3-(3-fluoro-4-methoxyphenyl)-8-(6-fluoropyridin-3-yl)-4-oxo-2-(pyrrolidin-2-yl)-3,4-dihydroquinazoline-6-carbonitrile] | 1 to 50 nM | 1 to 50 nM |
